Columns and labels:
[1] = molecular target: T1, Progesterone receptor (Homo sapiens, UniProt P06401); assay: Binding affinity towards progesterone receptor (PR) by displacing [3H]progesterone.
T1 sequence (P06401 whole entry): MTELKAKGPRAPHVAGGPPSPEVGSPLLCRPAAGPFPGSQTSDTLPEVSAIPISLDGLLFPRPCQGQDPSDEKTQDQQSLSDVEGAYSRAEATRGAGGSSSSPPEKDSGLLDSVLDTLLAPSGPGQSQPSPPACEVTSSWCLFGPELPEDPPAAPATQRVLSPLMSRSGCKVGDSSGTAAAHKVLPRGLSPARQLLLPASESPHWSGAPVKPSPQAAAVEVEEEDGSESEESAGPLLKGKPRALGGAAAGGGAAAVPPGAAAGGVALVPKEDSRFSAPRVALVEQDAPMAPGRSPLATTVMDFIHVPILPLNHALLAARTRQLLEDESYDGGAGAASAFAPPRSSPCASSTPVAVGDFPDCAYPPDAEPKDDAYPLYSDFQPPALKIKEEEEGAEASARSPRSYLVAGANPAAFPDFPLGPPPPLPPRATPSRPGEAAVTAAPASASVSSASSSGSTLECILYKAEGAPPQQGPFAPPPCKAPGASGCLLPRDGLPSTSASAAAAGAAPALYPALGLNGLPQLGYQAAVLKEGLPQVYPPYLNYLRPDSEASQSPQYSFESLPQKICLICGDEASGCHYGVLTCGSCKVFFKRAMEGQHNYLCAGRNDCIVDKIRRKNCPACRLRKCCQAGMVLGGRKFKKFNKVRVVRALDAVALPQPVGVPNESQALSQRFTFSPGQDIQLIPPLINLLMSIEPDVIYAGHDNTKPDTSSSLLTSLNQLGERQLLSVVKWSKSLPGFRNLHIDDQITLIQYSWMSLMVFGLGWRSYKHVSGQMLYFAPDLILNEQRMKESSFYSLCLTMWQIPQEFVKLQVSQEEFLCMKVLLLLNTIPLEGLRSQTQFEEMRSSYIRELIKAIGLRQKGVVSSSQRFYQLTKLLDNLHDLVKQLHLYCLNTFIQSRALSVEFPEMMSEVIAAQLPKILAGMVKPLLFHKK

[2] = molecular target: T2, Glucocorticoid receptor (Homo sapiens, UniProt P04150); assay: Binding affinity towards glucocorticoid receptor (GR) by displacing [3H]dexamethasone
T2 sequence (P04150 whole entry): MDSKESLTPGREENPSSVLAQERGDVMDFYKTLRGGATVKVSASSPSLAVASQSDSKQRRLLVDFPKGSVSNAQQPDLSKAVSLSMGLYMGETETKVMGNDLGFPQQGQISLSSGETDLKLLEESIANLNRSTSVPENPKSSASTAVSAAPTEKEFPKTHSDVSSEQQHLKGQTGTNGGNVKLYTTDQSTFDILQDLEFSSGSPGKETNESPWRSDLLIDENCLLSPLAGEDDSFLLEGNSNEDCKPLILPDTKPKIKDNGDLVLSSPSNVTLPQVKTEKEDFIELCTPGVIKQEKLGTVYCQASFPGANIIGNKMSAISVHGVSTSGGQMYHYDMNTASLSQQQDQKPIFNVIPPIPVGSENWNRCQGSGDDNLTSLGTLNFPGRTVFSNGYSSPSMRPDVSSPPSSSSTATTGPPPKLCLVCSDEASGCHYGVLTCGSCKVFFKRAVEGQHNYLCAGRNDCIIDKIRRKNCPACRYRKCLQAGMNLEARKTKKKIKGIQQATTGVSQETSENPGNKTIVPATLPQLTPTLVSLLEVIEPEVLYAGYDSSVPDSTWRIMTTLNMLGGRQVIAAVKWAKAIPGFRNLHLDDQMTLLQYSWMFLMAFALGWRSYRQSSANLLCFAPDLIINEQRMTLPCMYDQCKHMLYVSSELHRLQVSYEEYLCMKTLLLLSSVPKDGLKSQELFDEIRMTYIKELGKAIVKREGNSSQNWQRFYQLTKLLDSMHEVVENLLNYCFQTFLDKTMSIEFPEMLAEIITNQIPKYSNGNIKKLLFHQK

[3] = molecular target: T2, Glucocorticoid receptor; assay: Effective concentration in HepG2 cells transfected with LUC gene (E-sel-Luc).; type: functional, cell-based
[4] = molecular target: T2, Glucocorticoid receptor; assay: The effective concentration in CV-1 cells for glucocorticoid response element activation (GRE).; type: functional, cell-based

Row | Compound | Ki [1] [µM] | Ki [2] [µM] | EC50 [3] [µM] | EC50 [4] [µM]
1 | C/C=C/C1Oc2cccc(OC)c2-c2ccc3c(c21)C(C)=CC(C)(C)N3 (centres undefined) | 2.1 | 0.009 | 0.144 | 0.4
2 | COc1cccc2c1-c1ccc3c(c1C(CC(C)C)O2)C(C)=CC(C)(C)N3 (centres undefined) | > 5 | 0.0095 | 0.069 | 0.223
3 | C#CCC1Oc2cccc(OC)c2-c2ccc3c(c21)C(C)=CC(C)(C)N3 (centres undefined) | 0.76 |  | 0.027 | 0.034
4 | C/C=C\C1Oc2cccc(OC)c2-c2ccc3c(c21)C(C)=CC(C)(C)N3 (centres undefined) |  |  | 0.168 | 0.46
5 | COc1cccc2c1-c1ccc3c(c1C(CC(=O)O)O2)C(C)=CC(C)(C)N3 (centres undefined) | > 5 | > 5 | > 5 | > 5
6 | CNC(=O)CC1Oc2cccc(OC)c2-c2ccc3c(c21)C(C)=CC(C)(C)N3 (centres undefined) | > 5 | 3.2 | > 5 | > 5
7 | COc1cccc2c1-c1ccc3c(c1C(CCO)O2)C(C)=CC(C)(C)N3 (centres undefined) | > 5 |  |  | 
8 | COc1cccc2c1-c1ccc3c(c1CO2)C(C)=CC(C)(C)N3 | > 5 |  | > 5 | > 5
9 | COc1cccc2c1-c1ccc3c(c1C(C(C)C)O2)C(C)=CC(C)(C)N3 (centres undefined) | > 5 |  | 0.039 | 0.146
10 | CCC1Oc2cccc(OC)c2-c2ccc3c(c21)C(C)=CC(C)(C)N3 (centres undefined) | > 5 |  | 0.09 | 0.264
11 | COc1cccc2c1-c1ccc3c(c1C(CC(=O)N(C)C)O2)C(C)=CC(C)(C)N3 (centres undefined) | > 5 |  | > 5 | > 5
12 | COc1cccc2c1-c1ccc3c(c1C(CCN(C)C)O2)C(C)=CC(C)(C)N3 (centres undefined) | > 5 |  |  | 
13 | COc1cccc2c1-c1ccc3c(c1C(C1CCCCC1)O2)C(C)=CC(C)(C)N3 (centres undefined) | > 5 |  |  | 
14 | C=CCCC1Oc2cccc(OC)c2-c2ccc3c(c21)C(C)=CC(C)(C)N3 (centres undefined) | > 5 | 0.0081 | 0.022 | 0.078
15 | CCCC1Oc2cccc(OC)c2-c2ccc3c(c21)C(C)=CC(C)(C)N3 (centres undefined) | > 5 | 0.005 | 0.07 | 0.075
16 | COc1cccc2c1-c1ccc3c(c1C(C1CCCC1)O2)C(C)=CC(C)(C)N3 (centres undefined) | > 5 |  |  | 
17 | COc1cccc2c1-c1ccc3c(c1C(C(N)=O)O2)C(C)=CC(C)(C)N3 (centres undefined) | > 5 | > 5 | > 5 | > 5
18 | COc1cccc2c1-c1ccc3c(c1C(Cc1ccccc1)O2)C(C)=CC(C)(C)N3 (centres undefined) | > 5 |  |  | 
19 | COc1cccc2c1-c1ccc3c(c1C(c1cccc(OCSC)c1)O2)C(C)=CC(C)(C)N3 (centres undefined) | > 5 |  | 0.004 | 0.009
20 | C=CCC1Oc2cccc(OC)c2-c2ccc3c(c21)C(C)=CC(C)(C)N3 (racemic) [AL-43] | 1.8 | 0.0025 | 0.013 | 0.033
21 | C=CCC1Oc2cccc(OC)c2-c2ccc3c(c21)C(C)=CC(C)(C)N3 (single isomer, unassigned; (-)) [AL-43] | 1.3 |  | 0.0069 | 0.014
22 | C=CCC1Oc2cccc(OC)c2-c2ccc3c(c21)C(C)=CC(C)(C)N3 (stereo in doubt; 37) [AL-43] | > 5 | 0.15 | 0.45 | 0.52

— ChEMBL document CHEMBL1134311, “Nonsteroidal selective glucocorticoid modulators: the effect of C-5 alkyl substitution on the transcriptional activation/repression profile of 2,5-dihydro-10-methoxy-2,2,4-trimethyl-1H-[1]benzopyrano[3,4-f]quinolines” (J Med Chem, 2001)
